# Results from US8461328B2, “Tricyclic heterocyclic compounds, compositions and methods of use thereof” (Genentech, Inc., priority 2010, dated 2013).
# Read-outs that look alike come from different tables or passages of the source.
# Legend:
# Assay type in all cases: biochemical
# [1] = biological target: T1, JAK3 (Homo sapiens, UniProt P52333); assay: JAK3 inhibition (Table 4); settings: read-out: JAK3 Ki
# T1 construct: made in house; host or cells: SF9 insect cells (baculovirus)
# [2] = biological target: T2, JAK2 (Homo sapiens, UniProt O60674); assay: JAK2 inhibition (Table 4)
# T2 construct: made in house; host or cells: SF9 insect cells (baculovirus)
# [3] = biological target: T3, TYK2 (Homo sapiens, UniProt P29597); assay: TYK2 inhibition (Table 4)
# T3 construct: made in house; host or cells: SF9 insect cells (baculovirus)
# T3 sequence (P29597 873-1187): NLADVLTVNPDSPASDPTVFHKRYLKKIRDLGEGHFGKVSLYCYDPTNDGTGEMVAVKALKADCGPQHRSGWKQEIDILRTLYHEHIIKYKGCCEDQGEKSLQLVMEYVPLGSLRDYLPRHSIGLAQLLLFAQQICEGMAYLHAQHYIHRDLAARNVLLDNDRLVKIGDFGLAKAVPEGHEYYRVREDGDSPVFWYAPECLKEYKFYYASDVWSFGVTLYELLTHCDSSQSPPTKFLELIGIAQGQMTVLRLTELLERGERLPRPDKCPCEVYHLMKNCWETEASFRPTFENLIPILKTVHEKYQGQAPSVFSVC
# T2 sequence (O60674 812-1132): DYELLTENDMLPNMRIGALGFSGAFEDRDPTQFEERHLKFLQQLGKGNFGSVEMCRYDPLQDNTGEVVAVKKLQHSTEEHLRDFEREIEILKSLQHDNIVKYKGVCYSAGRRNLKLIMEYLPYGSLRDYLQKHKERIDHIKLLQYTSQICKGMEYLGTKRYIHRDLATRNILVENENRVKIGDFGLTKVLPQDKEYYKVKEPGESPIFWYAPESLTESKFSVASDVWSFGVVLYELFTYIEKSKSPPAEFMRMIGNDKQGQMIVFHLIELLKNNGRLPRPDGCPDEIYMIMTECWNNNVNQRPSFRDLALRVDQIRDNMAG
# T1 sequence (P52333 783-1124): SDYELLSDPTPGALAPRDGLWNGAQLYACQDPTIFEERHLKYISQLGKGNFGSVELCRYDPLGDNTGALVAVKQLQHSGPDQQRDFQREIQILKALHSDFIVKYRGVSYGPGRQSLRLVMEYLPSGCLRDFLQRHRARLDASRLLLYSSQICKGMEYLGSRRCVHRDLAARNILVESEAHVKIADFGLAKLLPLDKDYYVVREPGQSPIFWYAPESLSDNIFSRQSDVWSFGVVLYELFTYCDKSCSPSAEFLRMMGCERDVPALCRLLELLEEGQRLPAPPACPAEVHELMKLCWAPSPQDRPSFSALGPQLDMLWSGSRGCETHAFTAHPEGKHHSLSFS
Compound,Ki [1],Ki ([2]; read-out: JAK2 Ki),Ki [3],Ki ([2]; JAK2 Ki)
"O=S(=O)(c1ccccc1)N1CCC(n2cnc3cnc4[nH]ccc4c32)CC1 [Example 55, 1-(1-Benzenesulfonyl-piperidin-4-yl)-1,6-dihydro-1,3,5,6-tetraaza-as-indacene]",334 nM,6.59 nM,31 nM,–
"N#Cc1ccnc(N2CCC(n3cnc4cnc5[nH]ccc5c43)CC2)c1 [Example 96, 4-(6H-1,3,5,6-Tetraaza-as-indacen-1-yl)-3,4,5,6-tetrahydro-2H-[1,2′]bipyridinyl-4′-carbonitrile]",115 nM,19.7 nM,90 nM,–
"CC(C)(C)OC(=O)N[C@@H]1CC[C@H](n2cnc3cnc4[nH]ccc4c32)C1 [Example 135, [(1R,3S)-3-(6H-1,2,3,5,6-Tetraaza-as-indacen-1-yl)-cyclopentyl]-carbamic acid tert-butyl ester]",90.6 nM,20.3 nM,161 nM,–
"CS(=O)(=O)N[C@H]1CC[C@H](n2cnc3cnc4[nH]ccc4c32)CC1 [Example 105, Trans N-[4-(6H-1,3,5,6-tetraaza-as-indacen-1-yl)-cyclohexyl]-methanesulfonamide]",23.1 nM,3.53 nM,16.4 nM,–
"CC(C)(C)OC(=O)N[C@@H]1CC[C@@H](n2cnc3cnc4[nH]ccc4c32)C1 [Example 134, [(1R,3R)-3-(6H-1,2,3,5,6-Tetraaza-as-indacen-1-yl)-cyclopentyl]-carbamic acid tert-butyl ester]",32.8 nM,4.21 nM,62.4 nM,–
"CN1CCC[C@@H]1C(=O)N1CCC(n2cnc3cnc4[nH]ccc4c32)CC1 [Example 252, ((R)-1-Methyl-pyrrolidin-2-yl)-[4-(6H-1,3,5,6-tetraaza-as-indacen-1-yl)-piperidin-1-yl]-methanone]",1280 nM,285 nM,973 nM,–
"FC(F)(F)CN1CCC(n2cnc3cnc4[nH]ccc4c32)CC1 [Example 175, 1-[1-(2,2,2-Trifluoro-ethyl)-piperidin-4-yl]-1,6-dihydro-1,2,3,5,6-tetraaza-as-indacene]",38.1 nM,4.6 nM,19.2 nM,–
"CN(C)CC(=O)N1CCC(n2cnc3cnc4[nH]ccc4c32)CC1 [Example 36, 2-Dimethylamino-1-[4-(6H-1,3,5,6-tetraaza-as-indacen-1-yl)-piperidin-1-yl]ethanone]",1620 nM,242 nM,1190 nM,–
"C[C@@H](O)c1nc2cnc3[nH]ccc3c2n1C1CCCCC1 [Example 671, (R)-1-(1-Cyclohexyl-1,6-dihydro-1,2,3,5,6-tetraaza-as-indacen-2-yl)-ethanol]",22.4 nM,18.1 nM,2.47 nM,–
"CS(=O)(=O)NCc1nc2cnc3[nH]ccc3c2n1C1CCCCC1 [Example 200, N-(1-Cyclohexyl-1,6-dihydro-1,2,3,5,6-tetraaza-as-indacen-2-ylmethyl)-methanesulfonamide]",75.1 nM,45.4 nM,19.3 nM,–
"CS(=O)(=O)NCc1nc2cnc3[nH]ccc3c2n1C1CC2CCC1C2 (stereo not drawn) [Example 894, N-(1-Bicyclo[2.2.1]hept-2-yl-1,6-dihydro-1,3,5,6-tetraaza-as-indacen-2-ylmethyl)-methanesulfonamide]",37.4 nM,–,6.46 nM,6.18 nM
"N#CCCN[C@H]1CC[C@H](n2cnc3cnc4[nH]ccc4c32)CC1 [Example 275, 3-[4-(6H-1,3,5,6-Tetraaza-as-indacen-1-yl)-cyclohexylamino]-propionitrile]",47.4 nM,11.5 nM,36.4 nM,–
"N[C@H]1CC[C@H](n2nnc3cnc4[nH]ccc4c32)CC1 [Example 279, 4-(6H-1,2,3,5,6-Pentaaza-as-indacen-1-yl)-cyclohexylamine]",239 nM,–,–,–
"CS(=O)(=O)N1CCC(n2cnc3cnc4[nH]ccc4c32)CC1 [Example 54, 1-(1-Methanesulfonyl-piperidin-4-yl)-1,6-dihydro-1,3,5,6-tetraaza-as-indacene]",84.1 nM,2.99 nM,18.7 nM,–
"O=C(c1ccccc1)N1CCC(n2cnc3cnc4[nH]ccc4c32)CC1 [Example 35, Phenyl-[4-(6H-1,3,5,6-tetraaza-as-indacen-1-yl)-piperidin-1-yl]methanone]",692 nM,26.1 nM,165 nM,–
"CS(=O)(=O)NCc1nc2cnc3[nH]ccc3c2n1C1CCN(CCC#N)CC1 [Example 208, N-{1-[1-(2-Cyano-ethyl)-piperidin-4-yl]-1,6-dihydro-1,2,3,5,6-tetraaza-as-indacen-2-ylmethyl}-methanesulfonamide]",171 nM,43.1 nM,151 nM,–
"CC1(n2cnc3cnc4[nH]ccc4c32)CCN(S(C)(=O)=O)CC1 [Example 332, 1-(1-Methanesulfonyl-4-methyl-piperidin-4-yl)-1,6-dihydro-1,3,5,6-tetraaza-as-indacene]",71.4 nM,7.95 nM,31.1 nM,–
"N#CCCN[C@H]1CC[C@H](n2nnc3cnc4[nH]ccc4c32)CC1 [Example 280, 3-[4-(6H-1,2,3,5,6-Pentaaza-as-indacen-1-yl)-cyclohexylamino]-propionitrile]",127 nM,–,–,–
"c1ncc(CN2CCC(n3cnc4cnc5[nH]ccc5c43)CC2)cn1 [Example 52, 1-(1-Pyrimidin-5-ylmethyl-piperidin-4-yl)-1,6-dihydro-1,3,5,6-tetraaza-as-indacene]",4.14 nM,3.15 nM,56 nM,–
"c1cc2c(ncc3ncn(C4CCNCC4)c32)[nH]1 [Example 28, 1-Piperidin-4-yl-1,6-dihydro-1,3,5,6-tetraaza-as-indacene]",217 nM,–,80.1 nM,–
"CN1CCCCC1C(=O)N1CCC(n2cnc3cnc4[nH]ccc4c32)CC1 (single isomer, unassigned) [Example 196a, (1-Methyl-piperidin-2-yl)-[4-(6H-1,2,3,5,6-tetraaza-as-indacen-1-yl)-piperidin-1-yl]-methanone]",–,1340 nM,–,–
"C[C@@H](O)c1nc2cnc3[nH]ccc3c2n1[C@@H]1CCCN(CCC#N)C1 [Example 362, 3-{(R)-3-[2-((R)-1-Hydroxy-ethyl)-6H-1,3,5,6-tetraaza-as-indacen-1-yl]-piperidin-1-yl}-propionitrile]",461 nM,–,–,–

# Second part, led by results:
Ki [1],Ki ([2]; read-out: JAK2 Ki),Ki [3],Compound,Ki ([2]; JAK2 Ki)
188 nM,–,–,"C[C@@H](O)c1nc2cnc3[nH]ccc3c2n1[C@@H]1CCCN(CCC#N)C1 [Example 663, 3-{(R)-3-[2-((R)-1-Hydroxy-ethyl)-6H-1,2,3,5,6-tetraaza-as-indacen-1-yl]-piperidin-1-yl}-propionitrile]",–
242 nM,162 nM,114 nM,"CS(=O)(=O)NCc1nc2cnc3[nH]ccc3c2n1C1CCCC1 [Example 874, N-(1-Cyclopentyl-1,6-dihydro-1,3,5,6-tetraaza-as-indacen-2-ylmethyl)-methanesulfonamide]",–
154 nM,64.4 nM,422 nM,"Cn1ccnc1CCc1nc2cnc3[nH]ccc3c2n1C1CCN(CCC#N)CC1 [Example 411, 3-(4-{2-[2-(1-Methyl-1H-imidazol-2-yl)-ethyl]-6H-1,3,5,6-tetraaza-as-indacen-1-yl}-piperidin-1-yl)-propionitrile]",–
18.5 nM,–,–,"C[C@@H](O)c1nc2cnc3[nH]ccc3c2n1C1CCC(CCC#N)CC1 (stereo partly drawn) [Example 1007, 3-{4-[2-((R)-1-Hydroxy-ethyl)-6H-1,3,5,6-tetraaza-as-indacen-1-yl]-cyclohexyl}-propionitrile]",–
150 nM,77.7 nM,70.7 nM,"COC[C@H]1CC[C@H](n2c(CNS(C)(=O)=O)nc3cnc4[nH]ccc4c32)CC1 [Example 638, Trans N-[1-(4-methoxymethyl-cyclohexyl)-1,6-dihydro-1,2,3,5,6-tetraaza-as-indacen-2-ylmethyl]-methanesulfonamide]",–
35.7 nM,–,15.3 nM,"CCC(O)c1nc2cnc3[nH]ccc3c2n1C1CCCCC1 (stereo not drawn) [Example 876, 1-(1-Cyclohexyl-1,6-dihydro-1,3,5,6-tetraaza-as-indacen-2-yl)-propan-1-ol]",–
240 nM,97.2 nM,264 nM,"CC1(n2cnc3cnc4[nH]ccc4c32)CCN(CC(F)(F)F)CC1 [Example 752, 1-[4-Methyl-1-(2,2,2-trifluoro-ethyl)-piperidin-4-yl]-1,6-dihydro-1,3,5,6-tetraaza-as-indacene]",–
28.2 nM,24.3 nM,15.8 nM,"CS(=O)(=O)NCCc1nc2cnc3[nH]ccc3c2n1C1CCCCC1 [Example 514, N-[2-(1-Cyclohexyl-1,6-dihydro-1,3,5,6-tetraaza-as-indacen-2-yl)-ethyl]-methanesulfonamide]",–
371 nM,–,–,"CO[C@H]1CC[C@H](n2c([C@@H](C)O)nc3cnc4[nH]ccc4c32)CC1 [Example 635, Trans (R)-1-[1-(4-methoxy-cyclohexyl)-1,6-dihydro-1,2,3,5,6-tetraaza-as-indacen-2-yl]-ethanol]",–
68.4 nM,46.6 nM,118 nM,"CS(=O)(=O)NCc1nc2cnc3[nH]ccc3c2n1C1CCN(CC(F)(F)F)CC1 [Example 692, N-{1-[1-(2,2,2-Trifluoro-ethyl)-piperidin-4-yl]-1,6-dihydro-1,2,3,5,6-tetraaza-as-indacen-2-ylmethyl}-methanesulfonamide]",–
140 nM,–,–,"O[C@H]1CC[C@H](n2nnc3cnc4[nH]ccc4c32)CC1 [Example 546, trans 4-(6H-1,2,3,5,6-Pentaaza-as-indacen-1-yl)-cyclohexanol]",–
